Patent US9012443B2 (Amgen Inc., priority 2011, dated 2015)
pIC50: −log10 of the molar value.

Tests used:
Nav 1.5 = Nav 1.5 (Homo sapiens (Human), UniProt Q14524); assay: Nav 1.5 in vitro PX assay (PatchXpress whole cell voltage clamp); assay type: cell-based; conditions: 293 cells stably transfected with Nav 1.5; second part of table; read-out: Nav1.5 PX IC50
Description: Nav 1.5 In Vitro PX Assay
293 cells stably transfected with Nav 1.5 were recorded in whole cell voltage clamp mode with the PatchXpress automated electrophysiology system according the manufacturer's specifications (Molecular Devices, LLC, Sunnyvale, Calif.). Cells were held at a holding potential of −50 mV to inactivate sodium channels. To elicit sodium currents the voltage was changed to −120 mV to recover a portion of the channels, followed by delivery of test pulses of 20 msec duration to 0 mV, at 0.1 Hz. A single concentration of test compound was applied to cells for a duration of 5 minutes. Peak sodium current was measured at the end of the compound addition period to determine percent inhibition. A minimum of two cells were tested per concentration. IC50 curves were fitted to percent inhibition as a function of concentration.

Nav 1.7 = Nav 1.7 (Homo sapiens (Human), UniProt Q15858); assay: Nav 1.7 in vitro PX assay (PatchXpress whole cell voltage clamp); assay type: cell-based; conditions: 293 cells, human Nav1.7, partially inactivated state; read-out: Nav1.7 PX IC50 IP
Outline: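 Partially inactivated channel state (holding potential for 20–50% inactivation) probed in human Nav1.7-transfected 293 cells by automated patch clamp, test pulse −10 mV for 20 msec.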

Sequence of Nav 1.5 (Q14524 whole entry): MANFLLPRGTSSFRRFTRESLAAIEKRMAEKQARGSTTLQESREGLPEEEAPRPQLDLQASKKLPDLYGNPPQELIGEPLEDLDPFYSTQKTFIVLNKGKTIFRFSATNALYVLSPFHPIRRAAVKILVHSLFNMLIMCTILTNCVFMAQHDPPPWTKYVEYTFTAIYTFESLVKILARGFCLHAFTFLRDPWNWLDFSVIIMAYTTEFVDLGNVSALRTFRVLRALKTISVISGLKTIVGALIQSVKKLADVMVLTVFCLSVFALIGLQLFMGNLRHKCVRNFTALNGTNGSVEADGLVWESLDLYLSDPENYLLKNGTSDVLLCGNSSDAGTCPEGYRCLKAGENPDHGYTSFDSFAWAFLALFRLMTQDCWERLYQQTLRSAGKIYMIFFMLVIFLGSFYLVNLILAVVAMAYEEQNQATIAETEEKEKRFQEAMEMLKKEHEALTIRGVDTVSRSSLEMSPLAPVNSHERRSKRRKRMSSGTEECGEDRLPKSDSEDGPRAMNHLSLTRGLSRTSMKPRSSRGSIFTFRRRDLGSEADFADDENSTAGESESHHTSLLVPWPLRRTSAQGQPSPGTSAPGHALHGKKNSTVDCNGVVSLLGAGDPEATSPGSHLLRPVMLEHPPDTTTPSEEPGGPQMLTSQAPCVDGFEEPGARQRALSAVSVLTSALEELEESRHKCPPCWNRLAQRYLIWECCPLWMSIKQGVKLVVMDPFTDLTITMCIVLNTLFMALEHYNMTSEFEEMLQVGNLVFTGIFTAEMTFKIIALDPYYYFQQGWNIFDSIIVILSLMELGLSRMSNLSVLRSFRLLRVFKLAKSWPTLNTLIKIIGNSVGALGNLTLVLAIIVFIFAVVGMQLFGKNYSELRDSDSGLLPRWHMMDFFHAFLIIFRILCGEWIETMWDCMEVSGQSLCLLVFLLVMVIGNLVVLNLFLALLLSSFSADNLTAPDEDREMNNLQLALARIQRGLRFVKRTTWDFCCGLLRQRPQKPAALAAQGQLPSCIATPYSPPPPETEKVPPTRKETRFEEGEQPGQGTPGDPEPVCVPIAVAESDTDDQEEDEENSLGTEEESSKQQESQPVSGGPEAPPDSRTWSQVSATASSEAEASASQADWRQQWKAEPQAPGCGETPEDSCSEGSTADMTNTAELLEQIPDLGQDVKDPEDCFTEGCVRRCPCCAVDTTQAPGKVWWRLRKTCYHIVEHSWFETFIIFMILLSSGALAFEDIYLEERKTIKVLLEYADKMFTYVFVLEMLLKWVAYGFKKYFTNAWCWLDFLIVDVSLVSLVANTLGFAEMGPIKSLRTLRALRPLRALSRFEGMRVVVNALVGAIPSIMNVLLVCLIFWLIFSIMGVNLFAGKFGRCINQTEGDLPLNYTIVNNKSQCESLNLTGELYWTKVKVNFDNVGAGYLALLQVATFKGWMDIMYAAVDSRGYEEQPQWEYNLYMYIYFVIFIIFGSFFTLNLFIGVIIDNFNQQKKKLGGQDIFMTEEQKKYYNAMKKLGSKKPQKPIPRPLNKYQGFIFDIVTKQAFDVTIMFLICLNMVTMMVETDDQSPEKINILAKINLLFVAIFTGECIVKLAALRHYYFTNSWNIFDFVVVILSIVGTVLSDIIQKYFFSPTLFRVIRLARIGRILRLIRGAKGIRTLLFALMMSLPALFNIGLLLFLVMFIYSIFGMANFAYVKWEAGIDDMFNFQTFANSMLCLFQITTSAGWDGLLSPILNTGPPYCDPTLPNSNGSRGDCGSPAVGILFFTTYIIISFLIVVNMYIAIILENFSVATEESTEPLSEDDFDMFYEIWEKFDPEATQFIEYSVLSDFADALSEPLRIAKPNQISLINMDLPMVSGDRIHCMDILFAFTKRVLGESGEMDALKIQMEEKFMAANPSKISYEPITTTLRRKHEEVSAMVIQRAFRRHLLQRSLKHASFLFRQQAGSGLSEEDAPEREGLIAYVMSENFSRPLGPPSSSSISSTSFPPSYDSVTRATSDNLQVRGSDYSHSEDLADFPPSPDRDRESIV
Sequence of Nav 1.7 (Q15858 whole entry): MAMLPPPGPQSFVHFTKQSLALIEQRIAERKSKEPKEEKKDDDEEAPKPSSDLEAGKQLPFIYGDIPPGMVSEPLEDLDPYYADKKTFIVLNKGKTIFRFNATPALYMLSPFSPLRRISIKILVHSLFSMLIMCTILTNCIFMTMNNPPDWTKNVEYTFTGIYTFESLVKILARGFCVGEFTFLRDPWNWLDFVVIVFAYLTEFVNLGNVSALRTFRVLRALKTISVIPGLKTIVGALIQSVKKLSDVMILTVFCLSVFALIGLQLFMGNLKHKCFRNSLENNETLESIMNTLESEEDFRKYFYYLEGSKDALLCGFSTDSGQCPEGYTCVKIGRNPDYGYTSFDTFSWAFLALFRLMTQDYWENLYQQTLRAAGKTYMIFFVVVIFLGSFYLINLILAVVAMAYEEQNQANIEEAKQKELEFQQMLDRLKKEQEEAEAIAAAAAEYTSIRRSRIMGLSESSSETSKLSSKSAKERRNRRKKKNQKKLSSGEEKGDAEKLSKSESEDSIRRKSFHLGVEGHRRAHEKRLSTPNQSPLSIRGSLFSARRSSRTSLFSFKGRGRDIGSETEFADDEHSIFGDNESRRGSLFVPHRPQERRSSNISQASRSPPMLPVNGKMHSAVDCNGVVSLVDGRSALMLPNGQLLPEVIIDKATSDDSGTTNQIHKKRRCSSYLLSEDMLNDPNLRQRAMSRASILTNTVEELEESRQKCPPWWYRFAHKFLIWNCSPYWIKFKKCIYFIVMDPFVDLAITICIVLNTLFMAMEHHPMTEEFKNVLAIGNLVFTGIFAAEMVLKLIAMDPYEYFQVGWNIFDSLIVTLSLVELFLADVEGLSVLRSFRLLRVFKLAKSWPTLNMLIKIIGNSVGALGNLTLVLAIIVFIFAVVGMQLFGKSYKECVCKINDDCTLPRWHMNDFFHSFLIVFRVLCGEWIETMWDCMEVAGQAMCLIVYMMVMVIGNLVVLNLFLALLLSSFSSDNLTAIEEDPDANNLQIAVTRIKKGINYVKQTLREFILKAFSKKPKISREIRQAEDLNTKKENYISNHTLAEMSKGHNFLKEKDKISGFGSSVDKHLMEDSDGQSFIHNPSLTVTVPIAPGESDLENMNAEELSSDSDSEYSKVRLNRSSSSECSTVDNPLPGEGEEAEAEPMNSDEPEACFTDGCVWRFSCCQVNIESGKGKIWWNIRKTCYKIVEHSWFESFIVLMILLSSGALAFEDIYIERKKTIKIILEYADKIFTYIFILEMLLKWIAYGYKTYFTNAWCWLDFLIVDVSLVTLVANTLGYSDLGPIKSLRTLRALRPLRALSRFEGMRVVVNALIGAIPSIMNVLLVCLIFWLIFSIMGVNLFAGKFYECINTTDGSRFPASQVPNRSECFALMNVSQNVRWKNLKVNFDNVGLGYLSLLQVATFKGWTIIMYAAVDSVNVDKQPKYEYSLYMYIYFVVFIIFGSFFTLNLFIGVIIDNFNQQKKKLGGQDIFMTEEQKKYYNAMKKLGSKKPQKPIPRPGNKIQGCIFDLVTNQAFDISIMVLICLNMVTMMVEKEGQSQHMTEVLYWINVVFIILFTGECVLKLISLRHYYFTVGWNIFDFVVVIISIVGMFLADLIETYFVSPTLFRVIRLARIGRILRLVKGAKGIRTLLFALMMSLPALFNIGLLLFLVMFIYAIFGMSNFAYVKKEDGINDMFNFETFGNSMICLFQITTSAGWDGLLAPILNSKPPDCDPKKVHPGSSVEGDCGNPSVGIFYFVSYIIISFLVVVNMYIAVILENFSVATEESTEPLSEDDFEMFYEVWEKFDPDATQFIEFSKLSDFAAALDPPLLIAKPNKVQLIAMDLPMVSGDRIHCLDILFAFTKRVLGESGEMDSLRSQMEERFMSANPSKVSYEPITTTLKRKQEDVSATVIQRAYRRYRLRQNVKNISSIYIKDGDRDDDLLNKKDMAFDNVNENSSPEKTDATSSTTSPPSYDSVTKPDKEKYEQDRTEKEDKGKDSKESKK

| SMILES | pIC50 (Nav 1.7) | pIC50 (Nav 1.5) |
| --- | --- | --- |
| COc1cc(Cl)ccc1-c1ncnc2cc(S(=O)(=O)Nc3ncns3)ccc12 [Example 524, 4-(4-CHLORO-2-METHOXYPHENYL)-N-(1,2,4-THIADIAZOL-5-YL)QUINAZOLINE-7-SULFONAMIDE] | 7.00 | < 4.52 |
| COc1cc(-c2cc(F)cc(Cl)c2)ccc1-c1nccc2cc(S(=O)(=O)Nc3ccncn3)ccc12 [Example 491, 1-(3′-CHLORO-5′-FLUORO-3-METHOXY-[1,1′-BIPHENYL]-4-YL)-N-(PYRIMIDIN-4-YL)ISOQUINOLINE-6-SULFONAMIDE] | 7.00 | < 4.52 |
| COc1ccc(-c2cccc(F)c2)cc1-c1nccc2cc(S(=O)(=O)Nc3nncs3)ccc12 [Example 345, 1-(3′-FLUORO-4-METHOXY-[1,1′-BIPHENYL]-3-YL)-N-(1,3,4-THIADIAZOL-2-YL)ISOQUINOLINE-6-SULFONAMIDE] | 7.12 | < 4.52 |
| COc1cc(C(F)F)c(F)cc1-c1ncnc2cc(S(=O)(=O)Nc3cscn3)ccc12 [Example 513, 4-(4-(difluoromethyl)-5-fluoro-2-methoxyphenyl)-N-(thiazol-4-yl)quinazoline-7-sulfonamide] | 6.11 | < 4.52 |
| COc1cc(-c2ccc(F)cc2F)ccc1-c1nccc2cc(S(=O)(=O)Nc3ccncn3)ccc12 [Example 445, 1-(2′,4′-DIFLUORO-3-METHOXY-[1,1′-BIPHENYL]-4-YL)-N-(PYRIMIDIN-4-YL)ISOQUINOLINE-6-SULFONAMIDE] | 6.66 | < 4.52 |
| COc1nc(-c2cccc(F)c2)ccc1-c1nccc2cc(S(=O)(=O)Nc3ccncn3)ccc12 [Example 363, 1-(6-(3-FLUOROPHENYL)-2-METHOXYPYRIDIN-3-YL)-N-(PYRIMIDIN-4-YL)ISOQUINOLINE-6-SULFONAMIDE] | 6.27 | < 4.52 |
| COc1cc(C(F)(F)F)ccc1-c1nc(C)nc2cc(S(=O)(=O)Nc3nccs3)ccc12 [Example 510, 4-(2-METHOXY-4-(TRIFLUOROMETHYL)PHENYL)-2-METHYL-N-(THIAZOL-2-YL)QUINAZOLINE-7-SULFONAMIDE] | 6.33 | < 4.52 |
| COc1cc(-c2cccc(F)c2)c(C#N)cc1-c1nccc2cc(S(=O)(=O)Nc3ncns3)ccc12 [Example 340, 1-(2-CYANO-3′-FLUORO-5-METHOXY-[1,1′-BIPHENYL]-4-YL)-N-(1,2,4-THIADIAZOL-5-YL)ISOQUINOLINE-6-SULFONAMIDE] | 7.25 | < 4.52 |
| COc1cc(C(F)F)c(F)cc1-c1ncnc2cc(S(=O)(=O)Nc3nccs3)ccc12 [Example 512, 4-(4-(DIFLUOROMETHYL)-5-FLUORO-2-METHOXYPHENYL)-N-(THIAZOL-2-YL)QUINAZOLINE-7-SULFONAMIDE] | 6.63 | < 4.52 |
| COc1cc(-c2cccc(C(F)(F)F)c2)c(C#N)cc1-c1nccc2cc(S(=O)(=O)Nc3nncs3)ccc12 [Example 339, 1-(2-CYANO-5-METHOXY-3′-(TRIFLUOROMETHYL)-[1,1′-BIPHENYL]-4-YL)-N-(1,3,4-THIADIAZOL-2-YL)ISOQUINOLINE-6-SULFONAMIDE] | 7.51 | < 4.52 |
| COc1cc(-c2ccc(F)c(F)c2)c(F)cc1-c1nccc2cc(S(=O)(=O)Nc3nncs3)ccc12 [Example 365, N-(1,3,4-THIADIAZOL-2-YL)-1-(2,3′,4′-TRIFLUORO-5-METHOXY-[1,1′-BIPHENYL]-4-YL)ISOQUINOLINE-6-SULFONAMIDE] | 7.39 | < 4.52 |
| COc1cc(-c2cccc(F)c2F)ccc1-c1nccc2cc(S(=O)(=O)Nc3ccncn3)ccc12 [Example 444, 1-(2′,3′-difluoro-3-methoxy-[1,1′-biphenyl]-4-yl)-N-(pyrimidin-4-yl)isoquinoline-6-sulfonamide] | 6.73 | < 4.52 |
| COc1cc(-c2cc(C)cc(C)c2)ccc1-c1nccc2cc(S(=O)(=O)Nc3ccncn3)ccc12 [Example 470] | 6.74 | < 4.52 |
| COc1cc(-c2cccc(F)c2)c(Cl)cc1-c1nccc2cc(S(=O)(=O)Nc3ccncn3)ccc12 [Example 333, 1-(2-CHLORO-3′-FLUORO-5-METHOXY-[1,1′-BIPHENYL]-4-YL)-N-(PYRIMIDIN-4-YL)ISOQUINOLINE-6-SULFONAMIDE] | 7.12 | 4.69 |
| COc1cc(Oc2cccc(F)c2)ccc1-c1nccc2cc(S(=O)(=O)Nc3ccncn3)ccc12 [Example 464, 1-(4-(3-FLUOROPHENOXY)-2-METHOXYPHENYL)-N-(PYRIMIDIN-4-YL)ISOQUINOLINE-6-SULFONAMIDE] | 6.42 | < 4.52 |
| COc1cc(C(F)(F)F)ccc1-c1cnnc2cc(S(=O)(=O)Nc3nccs3)ccc12 [Example 259, 4-(2-METHOXY-4-(TRIFLUOROMETHYL)PHENYL)-N-(THIAZOL-2-YL)CINNOLINE-7-SULFONAMIDE] | 6.49 | < 4.52 |

Continued, in another order:

| pIC50 (Nav 1.7) | SMILES | pIC50 (Nav 1.5) |
| --- | --- | --- |
| 6.41 | COc1cc(Cl)c(C#N)cc1-c1nccc2cc(S(=O)(=O)Nc3nncs3)ccc12 [Example 337, 1-(4-CHLORO-5-CYANO-2-METHOXYPHENYL)-N-(1,3,4-THIADIAZOL-2-YL)ISOQUINOLINE-6-SULFONAMIDE] | < 4.52 |
| 6.51 | N#CCOc1cc(C(F)(F)F)ccc1-c1nccc2cc(S(=O)(=O)Nc3nccs3)ccc12 [Example 374, 1-(2-(CYANOMETHOXY)-4-(TRIFLUOROMETHYL)PHENYL)-N-(THIAZOL-2-YL)ISOQUINOLINE-6-SULFONAMIDE] | < 4.52 |
| 7.47 | COc1cc(-c2cccc(F)c2)c(Cl)cc1-c1ncnc2cc(S(=O)(=O)Nc3nncs3)ccc12 [Example 522, 4-(2-CHLORO-3′-FLUORO-5-METHOXY-[1,1′-BIPHENYL]-4-YL)-N-(1,3,4-THIADIAZOL-2-YL)QUINAZOLINE-7-SULFONAMIDE] | < 4.52 |
| 7.20 | COc1cc(-c2cc(C)cc(F)c2)ccc1-c1nccc2cc(S(=O)(=O)Nc3ccncn3)ccc12 [Example 472, 1-(3′-FLUORO-3-METHOXY-5′-METHYL-[1,1′-BIPHENYL]-4-YL)-N-(PYRIMIDIN-4-YL)ISOQUINOLINE-6-SULFONAMIDE] | < 4.52 |
| 6.10 | COc1cc(C(F)(F)F)ccc1-c1nccc2cc(S(=O)(=O)Nc3nc(C#N)cs3)ccc12 [Example 421, N-(4-CYANOTHIAZOL-2-YL)-1-(2-METHOXY-4-(TRIFLUOROMETHYL)PHENYL)ISOQUINOLINE-6-SULFONAMIDE] | < 4.52 |
| 7.24 | COc1cc(-c2cccc(F)c2)ccc1-c1nccc2cc(S(=O)(=O)Nc3ncns3)ccc12 [Example 369, 1-(3′-FLUORO-3-METHOXY-[1,1′-BIPHENYL]-4-YL)-N-(1,2,4-THIADIAZOL-5-YL)ISOQUINOLINE-6-SULFONAMIDE] | < 4.52 |
| 7.47 | COc1cc(-c2cc(F)cc(F)c2)ccc1-c1nccc2cc(S(=O)(=O)Nc3ccncn3)ccc12 [Example 449, 1-(3′,5′-DIFLUORO-3-METHOXY-[1,1′-BIPHENYL]-4-YL)-N-(PYRIMIDIN-4-YL)ISOQUINOLINE-6-SULFONAMIDE] | < 4.52 |
| 7.16 | COc1cc(-c2ccc(Cl)c(F)c2)ccc1-c1nccc2cc(S(=O)(=O)Nc3ccncn3)ccc12 [Example 492, 1-(4′-CHLORO-3′-FLUORO-3-METHOXY-[1,1′-BIPHENYL]-4-YL)-N-(PYRIMIDIN-4-YL)ISOQUINOLINE-6-SULFONAMIDE] | < 4.52 |
| 6.52 | COc1ccccc1-c1ncc(F)c2cc(S(=O)(=O)Nc3ncns3)ccc12 [Example 393, 4-FLUORO-1-(2-METHOXYPHENYL)-N-(1,2,4-THIADIAZOL-5-YL)ISOQUINOLINE-6-SULFONAMIDE] | < 4.52 |
| 7.11 | COc1cc(-c2ccc(C)c(Cl)c2)ccc1-c1nccc2cc(S(=O)(=O)Nc3ccncn3)ccc12 [Example 494, 1-(3′-CHLORO-3-METHOXY-4′-METHYL-[1,1′-BIPHENYL]-4-YL)-N-(PYRIMIDIN-4-YL)ISOQUINOLINE-6-SULFONAMIDE] | < 4.52 |
| 6.34 | COc1ccccc1-c1ncnc2cc(S(=O)(=O)Nc3nccs3)ccc12 [Example 272, 4-(2-METHOXYPHENYL)-N-(THIAZOL-2-YL)QUINAZOLINE-7-SULFONAMIDE] | < 4.52 |
| 6.47 | COc1cc(-c2ccc(F)c(C#N)c2)ccc1-c1nccc2cc(S(=O)(=O)Nc3ccncn3)ccc12 [Example 486, 1-(3′-CYANO-4′-FLUORO-3-METHOXY-[1,1′-BIPHENYL]-4-YL)-N-(PYRIMIDIN-4-YL)ISOQUINOLINE-6-SULFONAMIDE] | < 4.52 |
| 6.82 | N#CCOc1cc(Cl)ccc1-c1nccc2cc(S(=O)(=O)Nc3nccs3)ccc12 [Example 373, 1-(4-CHLORO-2-(CYANOMETHOXY)PHENYL)-N-(THIAZOL-2-YL)ISOQUINOLINE-6-SULFONAMIDE 2,2,2-TRIFLUOROACETATE] | < 4.52 |
| 7.54 | COc1cc(-c2cc(F)cc(F)c2)c(C#N)cc1-c1nccc2cc(S(=O)(=O)Nc3nncs3)ccc12 [Example 338, 1-(2-CYANO-3′,5′-DIFLUORO-5-METHOXY-[1,1′-BIPHENYL]-4-YL)-N-(1,3,4-THIADIAZOL-2-YL)ISOQUINOLINE-6-SULFONAMIDE] | < 4.52 |
| 6.66 | COc1ccc(-c2cccc(F)c2)cc1-c1n[nH]c(=O)c2cc(S(=O)(=O)Nc3ccncn3)ccc12 [Example 509, 1-(3′-FLUORO-4-METHOXY-[1,1′-BIPHENYL]-3-YL)-4-OXO-N-(PYRIMIDIN-4-YL)-3,4-DIHYDROPHTHALAZINE-6-SULFONAMIDE] | < 4.52 |
